Assay results from article PMC4911353, “Pharmacologic Inhibition of Host Phosphodiesterase-4 Improves Isoniazid-Mediated Clearance of Mycobacterium tuberculosis” (Frontiers in Immunology, 2016).
Read-outs that look alike come from different tables or passages of the source.

Assays:
[1] = Plasma pharmacokinetics of CC-11050 in mice after a single oral gavage (LC-MS/MS); assay type: in vivo; details: for Plasma concentration of CC-11050: mean ± SD
Protocol: The PDE4i, CC-11050 (N-[2-[(1S)-1-(3-ethoxy-4-methoxyphenyl)-2-(methylsulfonyl) ethyl]-2,3-dihydro-3-oxo-1H-isoindol-4-yl]-(9Cl) cyclopropanecarboxamide) has an empirical formula of C24H28N2O6S with one chiral center (Figure S1A in Supplementary Material). Uninfected mice (n = 3 per group) were treated with 5, 25, or 50 mg/kg of CC-11050 by oral gavage. In another experiment, mice (n = 3) were treated with 50 mg/kg of CC-11050 plus 50 mg/kg of INH. A group of mice (n = 3) without treatment were included as negative control. Venous blood was collected at 1, 2, 5, 8, and 24 h after a single gavage administration of CC-11050, with or without INH. Time-matched blood samples were also collected from untreated mice. The animals were gavaged after overnight fasting and fed soon after gavage. Plasma was collected by centrifugation of blood samples at 1,100× g for 10 min at 10°C and used for LC-MS/MS analysis.
The standard curve and quality control for CC-11050 were prepared in mouse plasma diluted 1:1 with Sorenson’s Citrate Buffer (25 mM; pH 1.5). Internal standard was prepared with ^13CD3-CC-11050 and mixed with the standard, quality control, or test samples at 4:1:1 (^13CD3-CC-11050:mouse plasma:Sorenson’s Citrate Buffer, vol/vol/vol) ratio. The mix was centrifuged at 4,000 rpm for 10 min at room temperature, and the supernatant was transferred to a 96-well assay plate. LC-MS/MS was performed using a Sciex API 4000 triple quadrupole mass spectrometer (Sciex, Division of MDS Inc., Canada) coupled to a Shimadzu HPLC system (Shimadzu Scientific Instruments, MD, USA). A Phenomenex Gemini column (5 μm, 2.0 mm × 50 mm; Phenomenex, CA, USA) was used for chromatography with 0.1% formic acid in water (mobile phase A) and 0.1% formic acid in acetonitrile (mobile phase B). The parameters used were 0 min for 10%B, 0.0–2.0 min for 10–75%B, 2.1–3.0 min for 95%B, and 3.05–4.0 min for 10%B. For mass spectrometric detection, a positive ion mode with turbo spray (ion source temperature of 450°C) and a dwell time of 100 ms was used. Analytes were quantified using multiple reactions monitoring (MRM) at the following transitions: mass-to-charge ratio 473.1–178.1 and 477.1–182.1 m/z for CC-11050 and its internal standard, respectively. Peak area ratios of the analyte to its internal standard versus analyte concentration, represented as quadratic regression plots, were derived with 1/x^2 weighting. Watson LIMS™ software was used to determine the pharmacokinetic parameters (Thermo Fisher, PA, USA). Peak plasma concentration (Cmax) and corresponding time (Tmax) were calculated from raw data. Area under the plasma concentration-time curve (AUC) was determined by linear/linear-log trapezoidal rule of non-compartmental model using data from time 0 and the last measurable time point (AUClast). All statistics were performed with Watson LIMS™ software. Plasma concentrations below the limit of quantitation (BLOQ) were treated as 0 for calculation.

[2] = tested on: Mycobacterium tuberculosis CDC1551; assay type: in vivo; details: in vivo, 50 mg/kg
[3] = parameters: method as in PMID 26981575; details: rabbits, cited from earlier work
[4] = single oral dose 50 mg/kg CC-11050 + 50 mg/kg INH
[5] = single oral dose 50 mg/kg CC-11050 only

CCOc1cc([C@@H](CS(C)(=O)=O)N2Cc3cccc(NC(=O)C4CC4)c3C2=O)ccc1OC [CC-11050, N-[2-[(1S)-1-(3-ethoxy-4-methoxyphenyl)-2-(methylsulfonyl)ethyl]-2,3-dihydro-3-oxo-1H-isoindol-4-yl]-(9Cl) cyclopropanecarboxamide]
AUClast ([1]; single oral dose 5 mg/kg): 1,080 ng × h/ml
AUClast ([1]; single oral dose 25 mg/kg): 2,800 ng × h/ml
AUClast [1, 4]: 13,900 ng × h/ml
Cmax [1, 4]: 1,610 ng/ml
Tmax [1, 4]: 5.0 h
Plasma concentration of CC-11050 ([1]; single oral dose 50 mg/kg CC-11050 + 50 mg/kg INH, 1 h): 905.35 ± 594.23 ng/mL
Plasma concentration of CC-11050 ([1]; single oral dose 50 mg/kg CC-11050 + 50 mg/kg INH, 2 h): 1,309.39 ± 214.08 ng/ml
Plasma concentration of CC-11050 ([1]; single oral dose 50 mg/kg CC-11050 + 50 mg/kg INH, 5 h): 1,609.18 ± 167.2 ng/ml
Plasma concentration of CC-11050 ([1]; single oral dose 50 mg/kg CC-11050 + 50 mg/kg INH, 8 h): 1,271.73 ± 249.18 ng/ml
Plasma concentration of CC-11050 ([1]; single oral dose 50 mg/kg CC-11050 + 50 mg/kg INH, 24 h): 4.96 ± 1.85 ng/mL
AUClast [1, 5]: 10,200 ng × h/ml
Cmax [1, 5]: 1,410 ng/ml
Tmax [1, 5]: 2.0 h
Plasma concentration of CC-11050 ([1]; single oral dose 50 mg/kg CC-11050 only, 1 h): 1,331.6 ± 136.97 ng/ml
Plasma concentration of CC-11050 ([1]; single oral dose 50 mg/kg CC-11050 only, 2 h): 1,409.47 ± 140.85 ng/ml
Plasma concentration of CC-11050 ([1]; single oral dose 50 mg/kg CC-11050 only, 5 h): 948.85 ± 128.7 ng/mL
Plasma concentration of CC-11050 ([1]; single oral dose 50 mg/kg CC-11050 only, 8 h): 820.6 ± 265.98 ng/mL
Plasma concentration of CC-11050 ([1]; single oral dose 50 mg/kg CC-11050 only, 24 h): 1.27 ± 1.1 ng/mL
Time to peak plasma concentration (Tmax) ([1]; single oral dose, each of three dose levels 5, 25, 50 mg/kg): 1 to 2 h
Difference in number of lung CFUs versus untreated mice [2]: No significant difference
Lung bacillary load ([2]; po): about 5.5 log10
Cmax ([3]; 50 mg/kg): 0.163 µg/mL
Tmax ([3]; 50 mg/kg): 4 h
Effect of INH on the pharmacokinetics of CC-11050 [3]: no effects
